Measurements: patent US12486495B2, “Cardiac organoid, manufacturing method therefor, and method for evaluating drug toxicity by using same” (priority 2020, dated 2025)

Tested on: cardiac organoid

For COc1ccc(CCN(C)CCCC(C#N)(c2ccc(OC)c(OC)c2)C(C)C)cc1OC (stereo not shown) [verapamil], the “beating velocity after treatment with calcium antagonist” value (FIG. 13A, heat maps for beating velocity, after drug treatment) was “reduced”, the “beating velocity after washing” value (FIG. 13A, after washing and culturing for 1 hour) was “again increased” and the “conduction displacement after treatment” value (comparison of three treatment amount groups (100 nM, 1 μM, 10 μM), FIG. 13B/13C) was “highest in a 1 μM group”. The “conduction displacement after washing” value (comparison of three treatment amount groups, FIG. 13B/13C) was “highest in the 1 μM group”, the “beat rate variation after washing” value (comparison of three treatment amount groups, FIG. 13C) was “highest in the 10 μM group” and the “drug toxicity of the heart, comparison” value (inferred from beat rate variation at low treatment amount) was “higher than that of nifedipine”. The “treatment amount at which side effects in the heart in vivo may be caused” value (inferred from beat rate variation of the cardiac organoid) was no less than 100 nM.
